Test results published in ChEMBL document CHEMBL5576115, “Design and synthesis of chromene-1,2,3-triazole benzene sulfonamide hybrids as potent carbonic anhydrase-IX inhibitors against prostate cancer” (RSC Med Chem, 2024).
Activity calls are given as the source filed them. The rule behind the calls is not given here.

What was measured:
[1] = system: MCF7; experiment: Cytotoxicity against human MCF7 cells assessed as reduction in cell viability measured after 48 hrs by MTT assay; format: functional, cell-based; conditions: MCF7, 48 h
[2] = system: MCF7; experiment: Cytotoxicity against human MCF7 cells assessed as reduction in cell viability at 100 uM measured after 48 hrs by MTT assay; format: functional, cell-based
[3] = system: PC-3; experiment: Cytotoxicity against human PC-3 cells assessed as reduction in cell viability measured after 48 hrs by MTT assay; format: functional, cell-based; conditions: PC-3, 48 h
[4] = biological target: Carbonic anhydrase 9 (Homo sapiens, UniProt Q16790); experiment: biochemical; format: cell-based, Sf9
Description: Inhibition of human C-terminal His-tagged CA-9 (59 to 414 residues) expressed in baculovirus infected Sf9 insect cells

[5] = system: WI-38; experiment: Cytotoxicity against human WI-38 cells assessed as cell death at 100 uM measured after 48 hrs by MTT assay relative to control; format: toxicity, cell-based; conditions: wi-38, 48 h
[6] = system: PC-3; experiment: Cytotoxicity against human PC-3 cells assessed as reduction in cell viability at 100 uM measured after 48 hrs by MTT assay; format: functional, cell-based
[7] = Cytotoxicity against human WI-38 cells assessed as reduction in cell viability measured after 48 hrs by MTT assay; format: toxicity, cell-based
[8] = system: PC-3; experiment: Induction of apoptosis in human PC-3 cells assessed as necrotic cells at cytotoxic IC50 measured after 48 hrs by Annexin-V-FITC/propidium iodide staining based flow cytometry (reference value: 1.61%); format: functional
[9] = system: PC-3; experiment: Cell cycle arrest in human PC-3 cells assessed as accumulation of cells at S phase at cytotoxic IC50 measured after 48 hrs by propidium iodide staining based flow cytometry (reference value: 19.81%); format: functional
[10] = system: PC-3; experiment: Cell cycle arrest in human PC-3 cells assessed as accumulation of cells at G2/M phase at cytotoxic IC50 measured after 48 hrs by propidium iodide staining based flow cytometry (reference value: 12.75%); format: functional
[11] = system: PC-3; experiment: Cell cycle arrest in human PC-3 cells assessed as accumulation of cells at G1 phase at cytotoxic IC50 measured after 48 hrs by propidium iodide staining based flow cytometry relative to control; format: functional
[12] = system: PC-3; experiment: Induction of apoptosis in human PC-3 cells assessed as accumulation of late apoptotic cells at cytotoxic IC50 measured after 48 hrs by Annexin-V-FITC/propidium iodide staining based flow cytometry relative to control; format: functional
[13] = system: PC-3; experiment: Induction of apoptosis in human PC-3 cells assessed as accumulation of early apoptotic cells at cytotoxic IC50 measured after 48 hrs by Annexin-V-FITC/propidium iodide staining based flow cytometry relative to control; format: functional

Cc1cc(=O)oc2cc(OCc3cn(CC(=O)Nc4ccc(S(=O)(=O)Nc5ccccn5)cc4)nn3)ccc12
IC50 [1]: 17 µM
Activity [2]: Active
IC50 [3]: 58.9 µM

Cc1cc(=O)oc2c(C)c(OCc3cn(-c4ccc(S(=O)(=O)Nc5ncccn5)cc4)nn3)ccc12
IC50 [1]: 16.7 µM
IC50 [3]: 12.5 µM

Cc1cc(=O)oc2c(C)c(OCc3cn(-c4ccc(S(=O)(=O)N=C(N)N)cc4)nn3)ccc12
IC50 [1]: 56.3 µM
IC50 [3]: 29.7 µM

COc1cccc2c1C(=O)c1c(O)c3c(c(O)c1C2=O)C[C@@](O)(C(=O)CO)C[C@@H]3O[C@H]1C[C@H](N)[C@H](O)[C@H](C)O1 [DOXORUBICIN]
IC50 [1]: 3.41 µM
IC50 [3]: 2.31 µM

O=C(Cn1cc(COc2cc(OCc3cn(CC(=O)Nc4ccc(S(=O)(=O)Nc5ccccn5)cc4)nn3)c3c(-c4ccccc4)cc(=O)oc3c2)nn1)Nc1ccc(S(=O)(=O)Nc2ccccn2)cc1
IC50 [4]: 214 nM
IC50 [1]: 57.2 µM
Activity [5]: 23.6%
Activity [6]: Active
IC50 at 48 h [7]: 46.6 µM
IC50 [3]: 5.52 µM

Cc1cc(C)nc(NS(=O)(=O)c2ccc(-n3cc(COc4ccc5c(C)cc(=O)oc5c4)nn3)cc2)n1
IC50 [1]: 97.5 µM
IC50 [3]: 9.98 µM

Cc1cc(=O)oc2c(C)c(OCc3cn(CC(=O)Nc4ccc(S(=O)(=O)Nc5ccccn5)cc4)nn3)ccc12
IC50 [1]: 38.9 µM
IC50 [3]: 40.1 µM

Cc1cc(C)nc(NS(=O)(=O)c2ccc(-n3cc(COc4cc(OCc5cn(-c6ccc(S(=O)(=O)Nc7nc(C)cc(C)n7)cc6)nn5)c5c(-c6ccccc6)cc(=O)oc5c4)nn3)cc2)n1
IC50 [4]: 134 nM
IC50 [1]: > 100 µM
Activity [5]: 23.6%
Activity [6]: Active
IC50 at 48 h [7]: 46.6 µM
IC50 [3]: 7.57 µM

O=c1cc(-c2ccccc2)c2c(OCc3cn(-c4ccc(S(=O)(=O)Nc5ncccn5)cc4)nn3)cc(OCc3cn(-c4ccc(S(=O)(=O)Nc5ncccn5)cc4)nn3)cc2o1
IC50 [1]: 66.7 µM
IC50 [3]: 11.6 µM

Cc1cc(=O)oc2c(C)c(OCc3cn(-c4ccc(S(=O)(=O)Nc5ccccn5)cc4)nn3)ccc12
IC50 [1]: 14.3 µM
Activity [2]: Active
IC50 [3]: 8.95 µM

N=C(N)NS(=O)(=O)c1ccc(-n2cc(COc3cc(OCc4cn(-c5ccc(S(=O)(=O)NC(=N)N)cc5)nn4)c4c(-c5ccccc5)cc(=O)oc4c3)nn2)cc1
IC50 [1]: 19.1 µM
Activity [2]: Active
IC50 [3]: 14.6 µM

O=c1cc(-c2ccccc2)c2c(OCc3cn(-c4ccc(S(=O)(=O)Nc5ccccn5)cc4)nn3)cc(OCc3cn(-c4ccc(S(=O)(=O)Nc5ccccn5)cc4)nn3)cc2o1
IC50 [4]: 113 nM
IC50 [1]: 18 µM
Activity [8]: 4.68%
Activity [9]: 15.29%
Activity [5]: 23.6%
Activity [10]: 9.36%
Activity [6]: Active
Activity [11]: 31.9%
IC50 at 48 h [7]: 46.6 µM
fold change (FC) [12]: 60
IC50 [3]: 2.08 µM
fold change (FC) [13]: >18

Cc1cc(C)nc(NS(=O)(=O)c2ccc(-n3cc(COc4ccc5c(C)cc(=O)oc5c4C)nn3)cc2)n1
IC50 [1]: 41.1 µM
IC50 [3]: 21.4 µM

Cc1cc(=O)oc2cc(OCc3cn(-c4ccc(S(=O)(=O)Nc5ncccn5)cc4)nn3)ccc12
IC50 [1]: 41.4 µM
IC50 [3]: 8.31 µM

Cc1cc(=O)oc2cc(OCc3cn(-c4ccc(S(=O)(=O)Nc5ccccn5)cc4)nn3)ccc12
IC50 [1]: 32 µM
IC50 [3]: 15.8 µM

Cc1cc(=O)oc2cc(OCc3cn(-c4ccc(S(=O)(=O)N=C(N)N)cc4)nn3)ccc12
IC50 [1]: 76 µM
IC50 [3]: 23.9 µM
